Experimental data: patent publication US9988390B2, “Pyrimidone derivatives and their use in the treatment, amelioration or prevention of a viral disease” (F. Hoffmann-La Roche AG, priority 2015, dated 2018)
Where two headings read alike, the source gives them in different places.

Test system: influenza A virus (A/WSN/33 NanoLuc reporter virus) in A549 cells
Assay: microbe, parasite or virus in culture
Assay type: cell-based
[1] = A549, 24 h, read-out: IC50 values of viral replication inhibition in a cell-based Luciferase Reporter Assay (LRA)
[2] = A549, isomers identified by X-ray analysis, read-out: IC50

| Structure (SMILES) | IC50 [1] [nM] | IC50 [2] [nM] |
| --- | --- | --- |
| CC(C)N1C[C@H](C(c2ccccc2)c2ccccc2)n2c(CN)nc(=O)c(O)c2C1=O [Ia-54, (4S)-6-(Aminomethyl)-4-benzhydryl-9-hydroxy-2-isopropyl-3,4-dihydropyrazino[1,2-c]pyrimidine-1,8-dione] | 931 |  |
| CCOc1nc(=O)c(O)c2n1[C@@H](C1c3ccccc3CCc3ccccc31)CN(C(C)C)C2=O [Example 1a-12, (4S)-4-(10,11-Dihydro-5H-dibenzo[a,d][7]annulen-5-yl)-6-ethoxy-9-hydroxy-2-(propan-2-yl)-3,4-dihydro-2H-pyrazino[1,2-c]pyrimidine-1,8-dione] | 24 |  |
| COCCOc1nc(=O)c(O)c2n1[C@@H](C(c1ccccc1)c1ccccc1)CN(C)C2=O [Ia-73, (4S)-4-Benzhydryl-9-hydroxy-6-(2-methoxyethoxy)-2-methyl-3,4-dihydropyrazino[1,2-c]pyrimidine-1,8-dione] | 119 |  |
| COc1nc(=O)c(O)c2n1[C@@H](C1c3cccc(F)c3CCc3c(F)cccc31)[C@H](C)N(C)C2=O [Example 1a-21, (3S,4S)-4-(1,9-Difluoro-10,11-dihydro-5H-dibenzo[a,d][7]annulen-5-yl)-9-hydroxy-6-methoxy-2,3-dimethyl-3,4-dihydro-2H-pyrazino[1,2-c]pyrimidine-1,8-dione] | 15 |  |
| CC(C)N1C[C@H](C(c2ccccc2)c2ccccc2)n2c(NCC(F)(F)F)nc(=O)c(O)c2C1=O [Ia-33, (4S)-4-Benzhydryl-9-hydroxy-2-isopropyl-6-(2,2,2-trifluoroethylamino)-3,4-dihydropyrazino[1,2-c]pyrimidine-1,8-dione] | 273 |  |
| CC(C)N1C[C@H](C2c3ccccc3CCc3ccccc32)n2c(N)nc(=O)c(O)c2C1=O [Example 1a-5, (4S)-6-Amino-4-(10,11-dihydro-5H-dibenzo[a,d][7]annulen-5-yl)-9-hydroxy-2-(propan-2-yl)-3,4-dihydro-2H-pyrazino[1,2-c]pyrimidine-1,8-dione] | > 50000 |  |
| CC(C)N1CC(C2c3cccc(F)c3CCc3c(F)cccc32)n2c(O)nc(=O)c(O)c2C1=O (stereo not drawn) [Ia-25, 4-(4,7-Difluoro-6,11-dihydro-5H-dibenzo[1,3-b:3′,1′-e][7]annulen-11-yl)-6,9-dihydroxy-2-isopropyl-3,4-dihydropyrazino[1,2-c]pyrimidine-1,8-dione] | 86 |  |
| CC(C)N1C[C@H](C(c2ccccc2)c2ccccc2)n2c(S(C)(=O)=O)nc(=O)c(O)c2C1=O [Ia-38, (4S)-4-Benzhydryl-9-hydroxy-2-isopropyl-6-methylsulfonyl-3,4-dihydropyrazino[1,2-c]pyrimidine-1,8-dione] | 110 |  |
| COc1nc(=O)c(O)c2n1[C@@H](C1c3ccccc3CCc3ccccc31)CN(C)C2=O [Example 1a-9, (4S)-4-(10,11-Dihydro-5H-dibenzo[a,d][7]annulen-5-yl)-9-hydroxy-6-methoxy-2-methyl-3,4-dihydro-2H-pyrazino[1,2-c]pyrimidine-1,8-dione] | 6 |  |
| CC(C)N1C[C@H](C(c2ccccc2)c2ccccc2)n2c(c(O)c(=O)n(C)c2=O)C1=O [Example 1b-1, (4S)-4-Benzhydryl-9-hydroxy-2-isopropyl-7-methyl-3,4-dihydropyrazino[1,2-c]pyrimidine-1,6,8-trione] | 1660 |  |
| C=Cc1nc(=O)c(O)c2n1C(C1c3ccccc3CCc3ccccc31)CN(C(C)C)C2=O (stereo not drawn) [Ia-47, 4-(6,11-Dihydro-5H-dibenzo[2,1-b:1′,2′-e][7]annulen-11-yl)-9-hydroxy-2-isopropyl-6-vinyl-3,4-dihydropyrazino[1,2-c]pyrimidine-1,8-dione] | 40 |  |
| CC(C)N1C[C@H](C(c2ccccc2)c2ccccc2)n2c(S)nc(=O)c(O)c2C1=O [Ia-28, (4S)-4-benzhydryl-9-hydroxy-2-isopropyl-6-sulfanyl-3,4-dihydropyrazino[1,2-c]pyrimidine-1,8-dione] | 61 |  |
| COc1nc(=O)c(O)c2n1[C@@H]([C@H]1c3ccccc3CSc3ccccc31)CN(C(C)C)C2=O (single isomer, unassigned) [Example 14] |  | 2 |
| CC[S+]([O-])c1nc(=O)c(O)c2n1[C@@H](C(c1ccccc1)c1ccccc1)CN(C(C)C)C2=O (stereo partly drawn) [Ia-32, (4S)-4-Benzhydryl-6-ethylsulfinyl-9-hydroxy-2-isopropyl-3,4-dihydropyrazino[1,2-c]pyrimidine-1,8-dione] | 117 |  |
| CN1C[C@H](C2c3ccccc3CCc3ccccc32)n2c(O)nc(=O)c(O)c2C1=O [Example 1a-11, (4S)-4-(10,11-Dihydro-5H-dibenzo[a,d][7]annulen-5-yl)-6,9-dihydroxy-2-methyl-3,4-dihydro-2H-pyrazino[1,2-c]pyrimidine-1,8-dione] | 128 |  |
| CC(C)N1C[C@H](C2c3ccccc3CCc3ccccc32)n2c(NCC(F)(F)F)nc(=O)c(O)c2C1=O [Ia-34, (4S)-4-(6,11-Dihydro-5H-dibenzo[2,1-b:1′,2′-e][7]annulen-11-yl)-9-hydroxy-2-isopropyl-6-(2,2,2-trifluoroethylamino)-3,4-dihydropyrazino[1,2-c]pyrimidine-1,8-dione] | 50 |  |
| CC(C)N1C[C@H](C(c2ccccc2)c2ccccc2)n2c(-c3nnn[nH]3)nc(=O)c(O)c2C1=O [Ia-53, (4S)-4-Benzhydryl-9-hydroxy-2-isopropyl-6-(1H-tetrazol-5-yl)-3,4-dihydropyrazino[1,2-c]pyrimidine-1,8-dione] | 20200 |  |

| Structure (SMILES) | IC50 [1] [nM] | IC50 [2] [nM] |
| --- | --- | --- |
| COc1nc(=O)c(O)c2n1[C@@H](C(c1ccccc1)c1ccccc1)CN(C)C2=O [Ia-65, (4S)-4-Benzhydryl-9-hydroxy-6-methoxy-2-methyl-3,4-dihydropyrazino[1,2-c]pyrimidine-1,8-dione] | 26 |  |
| CC(C)N1C[C@H](C(c2ccccc2)c2ccccc2)n2c(NC(C)C(F)(F)F)nc(=O)c(O)c2C1=O (stereo partly drawn) [Ia-37, (4S)-4-Benzhydryl-9-hydroxy-2-isopropyl-6-[(2,2,2-trifluoro-1-methyl-ethyl)amino]-3,4-dihydropyrazino[1,2-c]pyrimidine-1,8-dione] | 516 |  |
| CC(C)N1C[C@H](C2c3ccccc3CCc3ccccc32)n2cnc(=O)c(O)c2C1=O [Ia-29, (4S)-4-(6,11-Dihydro-5H-dibenzo[2,1-b:1′,2′-e][7]annulen-11-yl)-9-hydroxy-2-isopropyl-3,4-dihydropyrazino[1,2-c]pyrimidine-1,8-dione] | 22 |  |
| CC(C)Nc1nc(=O)c(O)c2n1[C@@H](C1c3ccccc3CCc3ccccc31)CN(C(C)C)C2=O [Ia-36, (4S)-4-(6,11-Dihydro-5H-dibenzo[2,1-b:1′,2′-e][7]annulen-11-yl)-9-hydroxy-2-isopropyl-6-(isopropylamino)-3,4-dihydropyrazino[1,2-c]pyrimidine-1,8-dione] | 103 |  |
| CSc1nc(=O)c(O)c2n1[C@@H](C1c3ccccc3CCc3ccccc31)CN(C(C)C)C2=O [Ia-30, (4S)-4-(6,11-Dihydro-5H-dibenzo[2,1-b:1′,2′-e][7]annulen-11-yl)-9-hydroxy-2-isopropyl-6-methylsulfanyl-3,4-dihydropyrazino[1,2-c]pyrimidine-1,8-dione] | 17 |  |
| COc1nc(=O)c(O)c2n1[C@@H]([C@@H]1c3ccccc3CSc3ccccc31)CN(C(C)C)C2=O (single isomer, unassigned) [Example 16] |  | 4 |
| CC(C)N1C[C@H](C(c2ccccc2)c2ccccc2)n2c(NS(C)(=O)=O)nc(=O)c(O)c2C1=O [Example 1a-17, N-[(4S)-4-benzhydryl-9-hydroxy-2-isopropyl-1,8-dioxo-3,4-dihydropyrazino[1,2-c]-pyrimidin-6-yl]methanesulfonamide] | 1670 |  |
| COc1nc(=O)c(O)c2n1[C@H]([C@H]1c3ccccc3CSc3ccccc31)CN(C(C)C)C2=O (single isomer, unassigned) [Example 17] |  | 28 |
| COc1nc(=O)c(O)c2n1[C@@H](C(c1ccccc1)c1ccccc1)CN(C(C)C)C2=O [Example 1a-4, (4S)-4-Benzhydryl-9-hydroxy-2-isopropyl-6-methoxy-3,4-dihydropyrazino[1,2-c]pyrimidine-1,8-dione] | 14 |  |
| Cc1nc(=O)c(O)c2n1[C@@H](C(c1ccccc1)c1ccccc1)CN(C(C)C)C2=O [Ia-40, (4S)-4-Benzhydryl-9-hydroxy-2-isopropyl-6-methyl-3,4-dihydropyrazino[1,2-c]pyrimidine-1,8-dione] | 119 |  |
| CC(C)N1C[C@H](C2c3ccccc3CCc3ccccc32)n2c(O)nc(=O)c(O)c2C1=O [Example 1a-10, (4S)-4-(10,11-Dihydro-5H-dibenzo[a,d][7]annulen-5-yl)-6,9-dihydroxy-2-(propan-2-yl)-3,4-dihydro-2H-pyrazino[1,2-c]pyrimidine-1,8-dione] | 98 |  |
| CC(C)N1C[C@H](C(c2ccccc2)c2ccccc2)n2c(N)nc(=O)c(O)c2C1=O [Example 1a-3, (4S)-6-Amino-4-benzhydryl-9-hydroxy-2-isopropyl-3,4-dihydropyrazino[1,2-c]pyrimidine-1,8-dione] | > 50000 |  |
| CCc1nc(=O)c(O)c2n1[C@@H](C(c1ccccc1)c1ccccc1)CN(C(C)C)C2=O [Ia-41, (4S)-4-Benzhydryl-6-ethyl-9-hydroxy-2-isopropyl-3,4-dihydropyrazino[1,2-c]pyrimidine-1,8-dione] | 77 |  |
| CC(C)N1C[C@H](C(c2ccccc2)c2ccccc2)n2c(c(O)c(=O)n(Cc3ccccc3)c2=O)C1=O [Example 1b-2, (4S)-4-Benzhydryl-7-benzyl-9-hydroxy-2-isopropyl-3,4-dihydropyrazino[1,2-c]pyrimidine-1,6,8-trione] | 4300 |  |
| CC(C)N1C[C@H](C(c2ccccc2)c2ccccc2)n2c(O)nc(=O)c(O)c2C1=O [Example 1a-6, (4S)-4-Benzhydryl-6,9-dihydroxy-2-isopropyl-3,4-dihydropyrazino[1,2-c]pyrimidine-1,8-dione] | 218 |  |
| CC(C)N1C[C@H](C2c3ccccc3CCc3ccccc32)n2c(NS(C)(=O)=O)nc(=O)c(O)c2C1=O [Ia-22, N-[(4S)-4-(6,11-dihydro-5H-dibenzo[1,2-a:2′,1′-d][7]annulen-11-yl)-9-hydroxy-2-isopropyl-1,8-dioxo-3,4-dihydropyrazino[1,2-c]pyrimidin-6-yl]methanesulfonamide] | 144 |  |
